Ends that are not written are not given here.

The text below walks through data of patent US9402875B2, “Amidated dopamine neuron stimulating peptide restoration of mitochondrial activity” (University of Kentucky Research Foundation, priority 2006, dated 2016).

One test has as its system B65 cells. The experiment in a line: Caspase-3 activity assay, mitochondrial toxins. The test is classed as cell-based. The method, then:
(§1) MN9D cells and B65 cells were cultured in Dulbecco's Modified Eagle's Medium (DMEM; 11995 (containing pyridoxol HCl); Sigma, St. Louis, Mo.) supplemented with 10% fetal bovine serum (HyClone, Logan, Utah), 50 U/mL penicillin and streptomycin. For each assay the cells were treated with mitochondrial-specific environmental toxins, i.e., MPP+, rotenone, and/or TaClo, and with or without DNSP-11. After incubation with the toxins, the cells were plated on 24-well poly-D-lysine plates (50,000 cells/well) for TUNEL assay (as described below) or 100,000 cell/well for caspase-3 assay in DMEM medium with 1% (v/v) penicillin-streptomycin only (as described below).
B65 cells were plated on 24-well poly-D-lysine plates in DMEM and 50u/ml penicillin and streptomycin. Cells incubated in either 50 nM, 100 nM, or 250 nM rotenone or 10 μM, […] or 50 μM TaClo for 1 to 12 hours at 37° C. in 5% CO2, following pretreatment (1 to 30 minutes) with or without 10 nM or 100 nM DNSP-11. The cells were then lysed and protein level measured by BCA assay (BioRad). The protein level were normalized for every experiment. The Enz Chek Caspase-3 Kit (Invitrogen) was used to detect caspase-3 activity and fluorescence was read on fluorescence reader (excitation/emission 496/520 nm). Data are expressed as % of control and were repeated a minimum of three times.

Test [1] has as its target T1, glyceraldehyde-3-phosphate dehydrogenase (GAPDH) (Rattus norvegicus, UniProt P04797).
T1 construct: homogenate from isolated substantia nigra of normal young Fischer 344 rats; from tissue; host or cells: substantia nigra of Fischer 344 rats (cytosolic and membrane fractions)
Briefly: DNSP-11 pull-down with substantia nigra homogenate, 2D-PAGE and MALDI-TOF MS. The test is classed as binding. How it is done: DNSP-11 Pull-down analysis: The F344 substantia nigra was homogenized in homogenization buffer (modified from York et al. (2005) FASED J. 19: 1202-4 with 20 mM HEPES, pH 7.4) and cytosolic fraction (supernatant) collected after 30 minutes at 100,000 g. 50 μg of bDNSP-11 was incubated with fraction for 15 minutes on ice. Sample was added to streptavidin magnetic beads (New England Biolabs), pelleted, and washed four times in homogenization buffer. Bound proteins were eluted by Solubilization/Rehydration Solution (7 M Urea, 2 M Thiourea, 50 mM DTT, 4% CHAPS, 1% NP-40, 0.2% Carrier ampholytes, 0.0002% Bromophenol blue), and analyzed by 2D-PAGE and MALDI-TOF MS.
In order to identify the interactions of DNSP-11 with protein partners and to gain insight into the cellular mechanisms involved with the actions of DNSP-11, a pull-down assay was performed with homogenate from isolated substantia nigra of normal young Fischer 344 rats. Cytosolic and membrane fractions were collected and incubated with biotinylated DNSP-11 for 30 minutes. Bound proteins were pulled down by strepavidin magnetic beads, extensively washed to remove non-specific binders, eluted with solubilization/rehydration buffer and separated by 2D-PAGE.
To identify these binding partners, protein bands were excised from the gels, trypsin digested, and analyzed by MALDI-TOF mass spectrometry. […]

Another test deals with MN9D cells. Briefly: TUNEL staining, mitochondrial toxins. The test is classed as cell-based. How it is done: as §1
Terminal deoxynucleotidyl transferase mediated X-dUTP nicked end DNA labeling of cells (TUNEL staining) was used to assess cells undergoing apoptosis. […] The biotinylated nucleotides are detected by using streptavidin-horseradish peroxidase conjugate followed by the substrate, diaminobenzidine (DAB). […] Cell were counted with 20× magnification (4 random fields/well), 4 wells per group. Ratio between apoptotic cells and total cells was calculated. […]

Test [2] has as its system E14 SD rat embryo primary dopaminergic neurons from the ventral mesencephalon. It is filed as cell-based. The method, then:
DNSP-11 treatment of Mesencephalic Cells: Timed pregnant SD rats (Harlan) were used to obtain the ventral mesencephalon from E14 fetuses. The dissected tissue was collected in cold Neurobasal™ medium and rinsed twice with cold Dulbecco's PBS. The cells were chemically (TrypLE®) and mechanically dissociated to yield a single cell suspension. The solution was centrifuged at 169 g for 6 minutes and the pellet was resuspended in Dulbecco's Modified Eagle Medium (DMEM). Cells were plated in a 25 μL micro-island at a density of 4000 cells/μL on poly-D-lysine coated 24-well plates (Sigma). Following adherence, cells were supplemented with warm NEUROBASAL™ media containing 2 mM glutamine, 1×N2, and 100 units of penicillin/streptomycin. Neurotrophic compounds were added at each media addition, including initial plating and DIV 2. A dose response of the peptides (0.03 ng to 10 ng/mL) was added to a 24-well plate following media supplementation.
The neurotrophic effects of DNSP-11 were studied by comparing its effects to the well-known effects of GDNF on the maintenance of primary mesencephalic cell cultures from E14 SD rat embryos. E14 SD rat embryo primary dopaminergic neurons from the ventral mesencephalon were grown for 5 days in vitro and neurotrophic molecules were added at each media change, including initial plating and day 2. […] These effects were similar to those observed for GDNF in these cells, including an increase in the size of TH+ neurons, which was not observed for DNSP-11 (Table 4).
In Table 1, cell survival and morphological parameters were quantified for control (citrate buffer) and experimental (0.1 ng/ml GDNF or 0.1 ng/ml DNSP-11) conditions. For morphology, five fields per well (minimum of 15 cells/field; 3-4 independent experiments) were photographed at 20× magnification and quantified using a Bioquant Image Analysis System. […] Soma size was not increased by the addition of DNSP-11. A one-way ANOVA was used to test for significance among groups, followed by a Newman-Keuls post hoc analysis. Significance between control and experimental conditions was determined at *p<0.05 and **p<0.01.

T1 sequence (P04797 whole entry): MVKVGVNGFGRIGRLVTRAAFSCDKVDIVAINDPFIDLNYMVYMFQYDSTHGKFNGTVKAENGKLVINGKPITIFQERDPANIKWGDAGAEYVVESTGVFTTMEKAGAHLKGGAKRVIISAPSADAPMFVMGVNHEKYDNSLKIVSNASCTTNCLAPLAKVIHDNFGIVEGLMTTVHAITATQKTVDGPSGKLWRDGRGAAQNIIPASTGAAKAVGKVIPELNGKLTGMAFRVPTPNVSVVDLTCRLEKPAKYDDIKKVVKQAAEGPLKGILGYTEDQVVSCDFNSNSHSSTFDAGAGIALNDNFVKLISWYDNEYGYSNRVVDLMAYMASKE

Turning to “PPEAPAEDRSL-NH2 [DNSP-11, PPEAPAEDRSL-amide]”, the “caspase-3 activity, DNSP-11 alone” value in the test on B65 cells (no toxin) was “no significant effect”. For the same substance, the “caspase-3 activity, protection from toxins” value in the test on B65 cells (rotenone or TaClo 1 to 12 hours, pretreatment with 10 nM or 100 nM DNSP-11) is on record as “significant protection”. The “GAPDH as binding partner in pull-down” value in test [1] (biotinylated DNSP-11, substantia nigra fractions, confirmed with pure GAPDH) is recorded as “identified”. In addition, the “number of bound proteins identified” value in test [1] (cytosolic and membrane fractions, preliminary studies) is given as “approximately 20”. Moreover, the “TUNEL staining, protection from toxins” value in the test on MN9D cells (MPP+, rotenone or TaClo 1 to 12 hours, pretreatment with 10 nM or 100 nM DNSP-11) was “significant protection”. The “TUNEL staining, DNSP-11 alone” value in the test on MN9D cells (no toxin) is reported as “no significant effect”. Further, the Cell survival result in test [2] (0.1 ng/ml, 5 days in vitro, control 100) is recorded as “*161 ± 17”. The “Average branches per neuron” value in test [2] (0.1 ng/ml, controls 3.8 ± 0.2 (GDNF), 3.1 ± 0.2 (DNSP-11)) is listed as “**4.4 ± 0.3”. Besides, the “Soma size (um^2)” value in test [2] (0.1 ng/ml, controls 171 ± 4 (GDNF), 168 ± 3 (DNSP-11)) was 165 ± 5 um^2. In test [2] (0.1 ng/ml, controls 242 ± 12 (GDNF), 222 ± 11 (DNSP-11)), the “Combined neurite length (um)” value is listed as “**306 ± 23 um”. In addition, the “TH+ neuron counts” value in test [2] (0.03, 0.1, 1.0 and 10 ng/ml) is given as “significantly increase”.
